{
  "source": "patent US20260125374A1",
  "about": "“PI3K-ALPHA INHIBITORS AND METHODS OF MAKING AND USING THE SAME” (Relay Therapeutics, Inc., priority 2021, published 2026)",
  "key": {"Bulk stability (1 week)": {"assay": "Bulk stability (1 week)", "assay_type": "physicochemical", "details": "listed as I-4 Form A; for Bulk (HPLC) chiral purity / Bulk (HPLC) purity / Bulk (XRPD): Solid state", "description": "Bulk stability of I-1 Form A and the 2 salt candidates was investigated at 25° C./92% RH in an open container, at 40° C./75% RH in an open container and at 60° C. in a tight container over 1 week. […] All the 3 salts show no obvious racemization based on chiral purity results.\nI-1 Form A and the 2 salts were placed at 25° C./92% RH in an open container, at 40° C./75% RH in an open container and at 60° C. in a closed container for I week. Samples after I week were characterized by XRPD and HPLC and inspected for color change."}, "[1]": {"assay": "Suspension stability at 25° C.", "assay_type": "physicochemical", "details": "for Purity / Solubility / pH / Chiral purity (solids) / Solubility (μg/mL) / Chiral purity, liquid / Chiral purity, solid: 25° C.; for Solubility (μg/mL): LOQ: 0.25 μg/mL", "description": "Suspension stability: Suspension stability of I-1 Form A and the 2 salt candidates was investigated in pure water, 0.5% (w/w) Tween 80 aqueous solution and 0.5% (w/w) MC (400 cP)+2% (w/w) Vitamin E TPGS aqueous solution at 25° C. for 2 h and 24 h. Target concentration was 2 mg/mL.\nTo confirm whether racemization occurs for the 2 salts in 0.5% (w/w) MC (400 cP)+2% (w/w) Vitamin E TPGS aqueous solution, the suspension stability in this vehicle was repeated at target concentration of 10 mg/mL. […] The hygroscopicity of these salts were further investigated.\nAccurate 10 mg of I-1 Form A, 12.83 mg of I-3 Form A, 11.58 mg of I-4 Form A was weighed into a 8 mL glass vial, respectively. 5 mL of suspension vehicle was added, respectively. The salt amount used is equivalent to 10 mg anhydrous free form. These suspensions were stirred at 25° C. with 400 rpm. These suspensions were taken out at 2 hours and 24 hours, then centrifuged at 14,000 rpm for 5 min. The supernatants were analyzed by HPLC and pH meter. Solids obtained (wet cakes) were characterized by XRPD and HPLC to determine the chiral purity.\nAccurate […] of I-3 Form A, 46.3 mg of I-4 Form A was weighed into a 8 mL glass vial, respectively. 4 mL of solubility medium was added, respectively. The salt amount used is equivalent to 40 mg anhydrous free form. 4 mL of the aqueous vehicle (0.5% (w/w) MC (400 cP) and 2% (w/w) Vitamin E TPGS in water) was added, respectively. These suspensions were stirred at 25° C. with 400 rpm. These suspensions were taken out at 2 hours and 24 hours, then centrifuged at 14,000 rpm for 5 min. The supernatants were analyzed by HPLC for the solubility and chiral purity and analyzed by pH meter. Solids obtained (wet cakes) were characterized by XRPD and HPLC for chiral purity."}, "[2]": {"details": "25° C./92% RH, open container, 1 week"}, "[3]": {"details": "40° C./75% RH, open container, 1 week"}, "[4]": {"details": "60° C., tight container, 1 week"}, "[5]": {"details": "2 mg/mL, 0.5%(w/w) MC(400 cP) and 2%(w/w) Vitamin E TPGS in water, 2 h, listed as I-4 Form A"}, "[6]": {"details": "2 mg/mL, 0.5%(w/w) MC(400 cP) and 2%(w/w) Vitamin E TPGS in water, 24 h, listed as I-4 Form A"}, "[7]": {"details": "2 mg/mL, 0.5%(w/w) Tween 80 in water, 2 h, listed as I-4 Form A"}, "[8]": {"details": "2 mg/mL, 0.5%(w/w) Tween 80 in water, 24 h, listed as I-4 Form A"}, "[9]": {"details": "2 mg/mL, Pure water, 2 h, listed as I-4 Form A"}, "[10]": {"details": "2 mg/mL, Pure water, 24 h, listed as I-4 Form A"}, "[11]": {"details": "10 mg/mL, 0.5(w/w) MC(400 cP) and 2%(w/w) Vitamin E TPGS in water, 2 h, listed as I-4 Form A"}, "[12]": {"details": "10 mg/mL, 0.5(w/w) MC(400 cP) and 2%(w/w) Vitamin E TPGS in water, 24 h, listed as I-4 Form A"}},
  "data": [
    {"smiles": "N#Cc1c(-c2cc(NC(=O)c3cc(F)cc(C(F)(F)F)c3)c3c(c2)C(=O)N[C@H]3c2cc(F)ccc2Cl)ccc2ncnn12", "note": "[Compound I-4]", "values": [
      {"measurement": "bulk stability (chemical and physical)", "setting": "Bulk stability (1 week); 25° C./92% RH open, 40° C./75% RH open, 60° C. tight container, 1 week", "result": "chemically stable but physically unstable at 25° C./92% RH and 40° C./75% RH"},
      {"measurement": "Bulk (HPLC) chiral purity", "setting": "Bulk stability (1 week); [2]", "result": 98.3, "unit": "%"},
      {"measurement": "Bulk (HPLC) purity", "setting": "Bulk stability (1 week); [2]", "result": 99.4, "unit": "%/"},
      {"measurement": "Bulk (XRPD)", "setting": "Bulk stability (1 week); [2]", "result": "Form changed"},
      {"measurement": "Bulk (HPLC) chiral purity", "setting": "Bulk stability (1 week); [3]", "result": 99.1, "unit": "%"},
      {"measurement": "Bulk (HPLC) purity", "setting": "Bulk stability (1 week); [3]", "result": 99.0, "unit": "%/"},
      {"measurement": "Bulk (XRPD)", "setting": "Bulk stability (1 week); [3]", "result": "Form changed"},
      {"measurement": "Bulk (HPLC) chiral purity", "setting": "Bulk stability (1 week); [4]", "result": 99.2, "unit": "%"},
      {"measurement": "Bulk (HPLC) purity", "setting": "Bulk stability (1 week); [4]", "result": 99.5, "unit": "%/"},
      {"measurement": "Chiral purity (initial)", "setting": "Bulk stability (1 week); before storage", "result": 99.5, "unit": "%"},
      {"measurement": "Initial purity by HPLC", "setting": "Bulk stability (1 week); before storage", "result": 99.6, "unit": "%"},
      {"measurement": "physical form of residual solids after the test (XRPD)", "setting": "[1]; 0.5% MC (400 cP)+2% Vitamin E TPGS, target 10 mg/mL", "result": "converted to amorphous form"},
      {"measurement": "Purity", "setting": "[1]; [5]", "result": 99.2, "unit": "%"},
      {"measurement": "Solubility", "setting": "[1]; [5]", "result": 1210.7, "unit": "µg/mL"},
      {"measurement": "pH", "setting": "[1]; [5]", "result": 2.72},
      {"measurement": "Purity", "setting": "[1]; [6]", "result": 99.6, "unit": "%"},
      {"measurement": "Solubility", "setting": "[1]; [6]", "result": 2018.8, "unit": "µg/mL"},
      {"measurement": "pH", "setting": "[1]; [6]", "result": 2.61},
      {"measurement": "Chiral purity (solids)", "setting": "[1]; [7]", "result": 99.7, "unit": "%"},
      {"measurement": "Purity", "setting": "[1]; [7]", "result": 99.5, "unit": "%"},
      {"measurement": "Solubility", "setting": "[1]; [7]", "result": 342.6, "unit": "µg/mL"},
      {"measurement": "pH", "setting": "[1]; [7]", "result": 2.78},
      {"measurement": "Chiral purity (solids)", "setting": "[1]; [8]", "result": 95.8, "unit": "%"},
      {"measurement": "Purity", "setting": "[1]; [8]", "result": 99.6, "unit": "%"},
      {"measurement": "pH", "setting": "[1]; [8]", "result": 2.63},
      {"measurement": "Solubility (μg/mL)", "setting": "[1]; 2 mg/mL, Pure water, 2 h", "result": "<LOQ"},
      {"measurement": "Chiral purity (solids)", "setting": "[1]; [9]", "result": 99.7, "unit": "%"},
      {"measurement": "Purity", "setting": "[1]; [9]", "result": 99.5, "unit": "%"},
      {"measurement": "pH", "setting": "[1]; [9]", "result": 2.81},
      {"measurement": "Solubility (μg/mL)", "setting": "[1]; 2 mg/mL, Pure water, 24 h", "result": "<LOQ"},
      {"measurement": "Chiral purity (solids)", "setting": "[1]; [10]", "result": 99.7, "unit": "%"},
      {"measurement": "Purity", "setting": "[1]; [10]", "result": 99.4, "unit": "%"},
      {"measurement": "pH", "setting": "[1]; [10]", "result": 2.61},
      {"measurement": "Purity", "setting": "[1]; 10 mg/mL, 0.5(w/w) MC(400 cP) and 2%(w/w) Vitamin E TPGS in water, 2 h", "result": 99.7, "unit": "%"},
      {"measurement": "Chiral purity, liquid", "setting": "[1]; [11]", "result": "100%;"},
      {"measurement": "Chiral purity, solid", "setting": "[1]; [11]", "result": 99.8, "unit": "%"},
      {"measurement": "pH", "setting": "[1]; [11]", "result": 1.89},
      {"measurement": "Chiral purity, liquid", "setting": "[1]; [12]", "result": "99.8%;"},
      {"measurement": "Chiral purity, solid", "setting": "[1]; [12]", "result": 99.7, "unit": "%"},
      {"measurement": "Purity", "setting": "[1]; [12]", "result": 99.6, "unit": "%"},
      {"measurement": "pH", "setting": "[1]; [12]", "result": 1.86},
      {"measurement": "solubility at 2 h", "setting": "[1]; 25 °C, aqueous with cosolvent or surfactant or cyclodextrin, thermodynamic from solid, 10 mg/mL, 0.5(w/w) MC(400 cP) and 2%(w/w) Vitamin E TPGS in water, 2 h", "result": 3950, "unit": "µg/mL"},
      {"measurement": "solubility at 24 h", "setting": "[1]; 25 °C, aqueous with cosolvent or surfactant or cyclodextrin, thermodynamic from solid, 10 mg/mL, 0.5(w/w) MC(400 cP) and 2%(w/w) Vitamin E TPGS in water, 24 h", "result": 3810, "unit": "µg/mL"},
      {"measurement": "Initial chiral purity", "setting": "[1]; before suspension, listed as I-4 Form A", "result": "Initial chiral purity: 99.5%"},
      {"measurement": "solubility at 24 h", "setting": "[1]; suspension in 0.5% (w/w) Tween 80 in water, 25 °C, aqueous with cosolvent or surfactant or cyclodextrin, thermodynamic from solid, 2 mg/mL, 0.5%(w/w) Tween 80 in water, 24 h", "result": 16.3, "unit": "µg/mL"}
    ]}
  ]
}
